Assay results taken from US6911306B1, “TMS1 compositions and methods of use” (Emory University, priority 1999, dated 2005).
Where a SMILES comes first, the peptide text is derived from it. The star is where a group is joined. Cbz = O=C(OCc1ccccc1)*; CH2F = FC*

Experiments:
[1] = system: 293 human embryonic kidney cells; test: Morphological apoptosis assay in transiently transfected 293 cells; format: cell-based; conditions: 48 h; for apoptosis on ectopic expression: transient transfection of 293 cells
Experimental: 293 human embryonic kidney cells were plated on glass coverslips in 24 well dishes at 1×10^5 cells per well, and were transfected with 0.4 μg of pcDNA3.1 or the TMS1 expression constructs plus 0.1 μg β-galactosidase expression vector (pCMVβgal, Clonetech) using the calcium phosphate precipitation method. Where indicated, 40 μM zVADfmk (Enzyme System Product, Livermore, Calif.) was included during the recovery period. Forty-eight hours after transfection, coverslips were fixed in 4% paraformaldehyde and stained for β-galactosidase activity, using X-gal, and for nuclear morphology, using Hoecsht […] dye. Cells were visualized by phase contrast microscopy. At least 200 β-galactosidase positive cells from randomly selected fields were counted from each transfection. Apoptotic cells were distinguished based on morphologic features typical of adherent cells undergoing apoptosis, including becoming condensed, rounded and detached from the growth surface as described. (McCarthy, J. V. et al., J.Biol.Chem. 273:16968-16975, 1998). Each transfection experiment was repeated three times.
(§1) Human embryonic kidney 293 cells and EcR-293 derivatives (MTMS22 and PIND1) were cultured in DMEM (Life Technologies, Inc. Grand Island, N.Y.) supplemented with 10% fetal bovine serum. MTMS22 and PIND1 cells were maintained in the presence of 400 μg/ml zeocin and 600 μg/ml G418. Transfections of 293 cells were carried out in 24-well dishes with 1×10^5 cells and 0.5 μg total DNA per well using the calcium phosphate method. As a transfection marker, a βgal expression vector (β-gal CMV) was included at a 1:4 ratio with the indicated cDNA constructs. In co-transfections with DN-caspase-8 or DN-caspase-9, 0.2 μg of pcDNA-TMS1 was transfected with […] of pcDNA3.1 or DN-caspase-8 or -9 along with 0.1 μg of β-gal CMV as a transfection control.
48 h after transfection, 293 cells were fixed on coverslips and stained for β-gal activity. Nuclei were stained using Hoechst 33258 dye (Sigma, St. Louis, Mo.). […]

TMS1 CpG island = test: Methylation-specific PCR of the TMS1 CpG island after demethylating agent treatment; format: cell-based, human; conditions: 0.5 μM for 3 days; ZR75-1, Hs578t and MDA MB231 cells
Experimental: Bisulfite modification and methylation-specific PCR were performed as previously described. (Herman, J. G., et al., Proc. Natl. Acad. Sci. U.S.A. 93:9821-9826, 1996) Briefly, 2 μg genomic DNA was denatured by incubation at 37° C. in 0.2N NaOH for 10 min. then treated with 3M sodium metabisulfite and 0.5 M hydroquinone at 50° C. for 16 h. DNA was desalted using Wizard DNA Clean-Ups (Promega). Modification was completed by the addition of NaOH to a final concentration of 0.3M and DNA was recovered by ethanol precipitation. Approximately 50 ng bisulfite-modified DNA was amplified by PCR with the following reaction conditions: 67 mM Tris-HCl, pH 8.8, 16.6 mM NH4SO4, 6.7 μM EDTA, 10 mM β-mercaptoethanol, 6.7 mM MgCl2, 1 μM each primer in a 25 μl reaction. Hot start PCR was performed using an initial 5 minute incubation at 95° C. followed by the addition of 0.5 U Taq polymerase (Life Technologies) and 35 cycles of PCR (95° C., 30 s; 58° C., 30 s; 72° C., 30 s). […]
(§2) If loss of TMS1 expression is directly related to methylation of the CpG island, then expression of TMS1 should be restored following treatment with a demethylating agent. […] Methylation of the TMS1 CpG island was analyzed by methylation specific PCR and expression of TMS1 was analyzed by RT-PCR with β-actin controls. […]

TMS1 transcript = test: RT-PCR analysis of TMS1 expression after demethylating agent treatment; format: cell-based, human; conditions: 0.5 μM for 3 days; ZR75-1, Hs578t and MDA MB231 cells
Experimental: Six μg total RNA was pretreated with DNAse I (Life Technologies) and reverse transcribed using random hexamer primers and MMLV-reverse transcriptase according to the manufacturers instructions (Life Technologies). One/30th of the reverse transcriptase reaction equivalent to 200 ng starting RNA was used directly in a PCR reaction. The PCR reaction conditions were: 67 mM Tris-HCl, pH 8.8, 16.6 mM NH4SO4, 6.7 μM EDTA, 10 mM β-mercaptoethanol, 4.7 mM MgCl2, 10% DMSO, 400 nM each primer in a 25 μl reaction. Hot start PCR was performed using an initial 5 minute incubation at 95° C. followed by the addition of 0.5 U Taq polymerase and 35 cycles of PCR (95° C., 30 s; 50-55° C., 60 s; 72° C., 60 s). Primers used for analysis of TMS1 were TGGGCCTGCAGGAGATG-3′ (SEQ ID NO:13) and 5′-ATTTGGTGGGATTGCCAG-3′ (SEQ ID NO:9) with an annealing temperature of 50° C. Primers used for the analysis for β-actin were 5′-[…]-3′ (SEQ ID NO:14) and 5′-[…]-3′ (SEQ ID NO:15) with an annealing temperature of 55° C. […]
as §2

MTMS22 cells [2] = test: DNA fragmentation in MTMS22 cells; format: cell-based, human
Experimental: Where indicated, MTMS22 cells were treated with 5 μM pon A (Invitrogen) or 40 μM Z-VAD-fmk (Enzyme System Products, Livermore, Calif.). DNA was collected from 2×10^6 cells as previously described. (Burow, M. E., et al. Cancer Research. 58: 4940-4946, 1998) 5 μg of DNA from each sample was visualized by separation on a 2% agarose gel containing ethidium bromide.

Hs578t cells = test: Colony formation assay; format: cell-based, human; conditions: stable expression, 14 days G418 selection, relative to vector control
Experimental: Breast cancer cells, including Hs57 8t, (3×10^5) were seeded into six well dishes and transfected with 1 μg pcDNA3.1 or the TMS1 expression constructs using 5 μl Lipofectamine reagent (Life Technologies). Twenty-four hours after transfection, cells were diluted 1:100-1:500 and seeded into 100 mm dishes in medium containing 400 μg/ml G418. After 14 days of selection, stable G418-resistant colonies were fixed and stained with 50% methanol, 0.25% crystal violet, and counted. The total number of colonies recovered per transfection cells was extrapolated from counting at least 300 G418^r colonies per experiment. The number of colonies recovered from cells transfected with pcDNA3.1 in each experiment was considered to be 100%. Three independent transfection experiments were performed.
Given the proapoptotic function of TMS1, the consequences of TMS1 silencing were determined by re-introducing TMS1 into breast cancer cells lacking endogenous TMS1 expression. Colony forming ability of TMS1 negative breast cancer cells stably transfected with TMS1 expression constructs was analyzed in the following manner. Hs578t cells were transfected with the pcDNA3.1 vector or the indicated TMS1 expression construct. Twenty-four hours after transfection, cells were plated at limiting dilution in G418 selection medium. […]

MTMS22 cells [3] = test: MTMS22 cell proliferation with ecdysone-inducible TMS1 expression; format: cell-based, human
Experimental: The Ecdysone-Inducible Mammalian Expression System (Invitrogen, Carlsbad, Calif.) was used to create clones of 293 cells that inducibly express mycTMS1. The mycTMS1 cDNA was cloned into the HindIII/XhoI sites of the pIND expression vector (pIND-mycTMS1). EcR-293 cells (Invitrogen, Carlsbad, Calif.) containing the pVgRXR vector were transfected with pIND-mycTMS1 or pIND using Lipofectamine Reagent (Life Technologies, Grand Island, N.Y.). Cells were maintained in selection medium containing 600 μg/ml G418 for 3 weeks to isolate stably transfected colonies. Clonal populations transfected with pIND-mycTMS1 were then tested for inducible expression by western blot analysis after addition of 5 μM pon A.
Human embryonic kidney 293 cells and EcR-293 derivatives (MTMS22 and PIND1) were cultured in DMEM (Life Technologies, Inc. Grand Island, N.Y.) supplemented with 10% fetal bovine serum. MTMS22 and PIND1 cells were maintained in the presence of 400 μg/ml zeocin and 600 μg/ml G418. Transfections of 293 cells were carried out in 24-well dishes with 1×10^5 cells and 0.5 μg total DNA per well using the calcium phosphate method. As a transfection marker, a βgal expression vector (β-gal CMV) was included at a 1:4 ratio with the indicated cDNA constructs. […]

NF-κB = test: CAT assay for NF-κB activation; format: cell-based, human; conditions: 293 cells, NF-κB CAT reporter, increasing amounts of TMS1
Experimental: 293 cells plated at 60% confluence in 6 well dishes were transfected with 0.2 μg of the NF-κB CAT reporter construct (pJECAT2.6) and increasing amounts of pcDNA-mycTMS1 by the calcium phosphate method. 0.2 μg of β-gal CMV was included as a transfection control, and the total amount of DNA transfected was kept constant at 2 μg with pcDNA3.1. Cell lysates were collected 36 h after transfection in β-gal lysis buffer (Promega, Madison, Wis.) and assayed for β-gal activity using the β-Galactosidase Enzyme Assay System (Promega, Madison, Wis.) per manufacturer's instructions. CAT assays were performed basically as described. (Ausubel, F. M., et al. Curr. Prot. Mol. Biol., Vol. 2, pp. 9.7.5-9.7.6: John Wiley & Sons, Inc., 1997) In brief, cell lysates were incubated with [^14C]chloramphenicol and n-butyryl CoA. [^14C]-labeled acetylated chloramphenicol was then separated from the nonacetylated form by organic phase extraction, and radioactive counts were determined using a scintillation counter.

pIND1 control cells = test: Growth of pIND1 control cells; format: cell-based, human; conditions: empty-vector control cells
Experimental: as §1
An ecdysone-regulated expression system was used to create a 293 cell line that inducibly expresses TMS1. […] In addition, a clonal population of cells stably transfected with the empty expression vector was isolated as a control (PIND1). Upon addition of pon A to the MTMS22 cells, mycTMS1 was detectable by western blotting as early as 6 hours after treatment and continued to accumulate in the cells over 48 hours (FIG. 6A). […] By 96 hours, pon A-treated cells were declining in number, confirming cell death. As a biochemical marker for apoptosis, MTMS22 cells were examined for DNA fragmentation in the presence or absence of TMS1 expression. […]

293 cells = test: Fluorescence microscopy of TMS1 subcellular localization; format: cell-based, human; conditions: cells expressing TMS1 in the presence of Z-VAD
Experimental: Cells were fixed in 4% formaldehyde, permeabilized in 0.2% triton X-100 in PBS and blocked with 3% BSA/0.02% triton X-100 in PBS. Coverslips were incubated with myc antibody (9E10) (Santa Cruz Biotechnology, Santa Cruz, Calif.) at a 1:500 dilution, washed 4 times in PBS/0.02% triton X-100 and incubated with a secondary FITC antibody at a 1:2000 dilution. After 3 more washes, cells were stained with Hoechst 33258 dye to visualize nuclei, washed twice in PBS and mounted on slides. Cells were viewed at 400× or 1000× using the Olympus BX60 microscope. Digital images were captured using IP Lab Spectrum v.3.1 software (Scanalytics, Inc., Fairfax, Va.).

[4] = MTMS22 cells with pon A, 40 μM Z-VAD

## mycTMS1: TMS1 with a myc-epitope tag fused to amino acid 2
[1]
  apoptosis on ectopic expression: induced apoptosis

## Nc1ncn([C@H]2C[C@H](O)[C@@H](CO)O2)c(=O)n1 [5-aza-2′-deoxycytidine]
TMS1 CpG island
  methylation of the TMS1 CpG island: partial demethylation
TMS1 transcript
  expression of TMS1 transcript: re-expression-of TMS1 transcript

## TMS1: human TMS1 polypeptide (SEQ ID NO:3) expressed from the TMS1 cDNA in pcDNA3.1
MTMS22 cells [2]; MTMS22 cells, pon A, as early as 16 hours, most evident at 48 hours
  DNA laddering on induced TMS1 expression: DNA laddering was observed
Hs578t cells
  inhibition of colony formation: about 70%
[1]; 293 cells, ectopic expression
  increase in cell death: 6 fold
[1]
  apoptosis on ectopic expression: induced apoptosis
MTMS22 cells [3]; MTMS22 cells, pon A, by 48 hours after induction
  cell growth on induced TMS1 expression: cell growth was significantly inhibited
NF-κB
  NF-κB-dependent transcriptional activation: no effect

## CC(C)CC[C@@H](O)[C@](C)(O)[C@H]1CC[C@@]2(O)C3=CC(=O)[C@@H]4C[C@@H](O)[C@@H](O)C[C@]4(C)[C@H]3CC[C@]12C [pon A]
pIND1 control cells
  effect on growth of pIND1 control cells: Neither pon A or Z-VAD had any effect

## COC(=O)C[C@H](NC(=O)[C@H](C)NC(=O)[C@@H](NC(=O)OCc1ccccc1)C(C)C)C(=O)CF [Z-VAD, Z-VAD-fmk] (Cbz-Val-Ala-Asp(OMe)-CH2F)
MTMS22 cells [2]; [4]
  effect on TMS1-induced DNA fragmentation: blocked
293 cells
  effect on formation of TMS1-containing spherical aggregates: no effect
MTMS22 cells [3]; [4]
  effect on TMS1-induced cell death: blocked
pIND1 control cells
  effect on growth of pIND1 control cells: Neither pon A or Z-VAD had any effect
